Data as given in US20040248775A1, “Methods for screening inhibitors of apoptosis” (Wyeth, priority 2003, published 2004).

Target: T1, wild-type NALP1 (Homo sapiens, UniProt Q9C000)
T1 construct: to generate full-length NALP1 in frame with EGFP; expressed in transfected cells; host or cells: HeLa cells, transient transfection with the pEGFP-N3 based plasmid; S-100 extract used
T1 sequence (Q9C000 1-1473): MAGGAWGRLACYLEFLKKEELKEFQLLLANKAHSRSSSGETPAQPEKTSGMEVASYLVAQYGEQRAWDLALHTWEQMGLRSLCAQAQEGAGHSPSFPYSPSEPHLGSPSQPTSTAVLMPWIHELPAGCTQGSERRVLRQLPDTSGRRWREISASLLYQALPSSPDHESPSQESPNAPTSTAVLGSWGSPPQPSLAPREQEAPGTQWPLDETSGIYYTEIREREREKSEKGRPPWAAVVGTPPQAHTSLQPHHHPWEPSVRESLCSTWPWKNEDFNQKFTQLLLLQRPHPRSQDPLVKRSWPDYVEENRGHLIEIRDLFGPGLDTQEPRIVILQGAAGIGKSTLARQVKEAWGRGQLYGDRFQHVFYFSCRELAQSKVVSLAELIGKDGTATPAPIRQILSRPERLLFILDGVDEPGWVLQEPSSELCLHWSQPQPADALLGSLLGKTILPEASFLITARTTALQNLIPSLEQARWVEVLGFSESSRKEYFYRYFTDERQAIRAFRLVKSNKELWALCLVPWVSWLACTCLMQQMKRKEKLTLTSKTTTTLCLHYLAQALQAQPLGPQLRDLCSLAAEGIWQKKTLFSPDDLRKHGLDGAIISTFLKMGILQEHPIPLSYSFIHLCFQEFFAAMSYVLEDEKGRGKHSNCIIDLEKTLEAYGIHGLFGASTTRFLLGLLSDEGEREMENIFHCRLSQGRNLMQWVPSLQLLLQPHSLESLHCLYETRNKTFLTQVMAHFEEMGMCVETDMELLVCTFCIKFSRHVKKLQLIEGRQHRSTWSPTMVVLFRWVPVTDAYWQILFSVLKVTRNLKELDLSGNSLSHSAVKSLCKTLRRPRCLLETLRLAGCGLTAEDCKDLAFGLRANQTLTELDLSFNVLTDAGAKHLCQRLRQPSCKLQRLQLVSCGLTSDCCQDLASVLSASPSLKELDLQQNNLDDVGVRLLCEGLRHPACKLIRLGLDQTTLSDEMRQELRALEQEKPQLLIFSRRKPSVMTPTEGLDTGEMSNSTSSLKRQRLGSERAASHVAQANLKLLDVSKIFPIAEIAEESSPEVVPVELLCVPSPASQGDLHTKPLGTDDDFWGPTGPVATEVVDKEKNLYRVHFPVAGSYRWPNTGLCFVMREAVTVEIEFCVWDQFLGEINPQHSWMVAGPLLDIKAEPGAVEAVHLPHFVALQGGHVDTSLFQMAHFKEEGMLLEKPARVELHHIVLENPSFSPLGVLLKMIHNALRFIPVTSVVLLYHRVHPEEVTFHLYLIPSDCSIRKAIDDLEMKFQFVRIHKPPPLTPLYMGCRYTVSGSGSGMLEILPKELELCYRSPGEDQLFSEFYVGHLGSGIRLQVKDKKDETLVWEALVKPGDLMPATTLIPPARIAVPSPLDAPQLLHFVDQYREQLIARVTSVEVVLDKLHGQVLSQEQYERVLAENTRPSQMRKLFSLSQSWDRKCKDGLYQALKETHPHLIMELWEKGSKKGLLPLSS
Experiment: Fluorimetric DEVDase (caspase-3) assay in HeLa cell extracts expressing wild-type NALP1-EGFP
Format: biochemical
Conditions: 2 mM dATP, 2 mM MgCl2, 1 hour, Ac-DEVD-AMC substrate
Experimental: Cell extract preparation and fluorimetric assay of caspase activity. Preparation of cell extracts, dATP incubation and caspase-3 activities assays were performed as described by Liu et al. (1996). Briefly, HeLa cells were grown in DMEM, 10% FBS. Cells were plated in T175 flasks to 60% confluence. Control vector pEGFP or wild-type or NBS mutant NALP1-EGFP expression plasmids were transfected into HeLa cells using Lipofectamine Plus. Cells were collected in homogenization buffer (20 mM HEPES pH 7.5, 10 mM KCl, 1 mM sodium EDTA, […], 1 mM sodium EGTA, 0.1% CHAPS, 1 mM DTT, 0.1 mM PMSF and protease inhibitor cocktail tablets (Roche)), 24 hours after transfection. Cells were chilled on ice for 15 minutes and homogenized by douncing 30 times in a glass douncer. Samples were centrifuged at 1000×g for 10 minutes at 4° C. […] After 2 hours incubation, liberation of AMC (7-amino-4-methylcoumarin) from the substrate was monitored using excitation/emission wavelength pairs (λex/λem) of 380/460 nm using a SpectraFluor Plus instrument (Tecan). Triplicate samples were evaluated with or without specific inhibitors. […] Normalized data from multiple experiments were expressed as means±standard deviation. For each experiment, the expression of EGFP-tagged NALP1 proteins was analyzed by anti-GFP immunoblot and quantified by densitometry.

Nc1ncnc2c1ncn2[C@H]1C[C@H](O)[C@@H](COP(=O)(O)OP(=O)(O)OP(=O)(O)O)O1 [dATP]
DEVDase activity, extracts with wild-type NALP1: significantly elevated
